Experimental findings from patent US10035819B2, “PPAR agonists and methods of use thereof” (The Salk Institute for Biological Studies, priority 2014, dated 2018) are described below.

The structures appear in SMILES notation. Converted amounts (≈) assume the structure as drawn. Read-outs that look alike come from different tables or passages of the source.

Data set [1] in a line: Solubility (kinetic, thermodynamic). The class given is physicochemical.
Data set [2] is classed as in vitro ADME. The settings on record: MLM.
The next data set in a line: % Parent remained in HLM. The class given is in vitro ADME.
A short description of data set [3]: Pharmacokinetics in male CD-1 mice (i.v. and p.o.). Format: in vivo. As to conditions: CD-1 mice; for Vd: CD-1, mouse, 3 mg/kg. The procedure: The oral bioavailability and serum half lives of PPARδ ligands were compared in mice. The pharmacokinetics of PPARδ ligands delivered orally (10 mg/kg p.o.) and intravenously (3 mg·kg i.v.) were determined by mass spectrometry.
In this example, the PK profile of several PPARδ agonists disclosed herein in male CD-1 mice or Wistar rats was determined. Similar methods can be used to analyze other compounds provided herein.
(quantity sufficient ie made up to a final volume of 100% with water). All compounds were separately administered to CD-1 mice at 3 mg/kg iv or 10 mg/kg po.
The concentration of the compound in plasma was determined, as illustrated in FIGS. 9A-9E.

The next data set concerns the target T1, Human PPARδ LBD (Homo sapiens, UniProt Q03181).
T1 construct: (PPARδ amino acid 128 to C-terminus); expressed in transfected cells; host or cells: CV-1 cells
T1 sequence (Q03181 128-441 limits assumed): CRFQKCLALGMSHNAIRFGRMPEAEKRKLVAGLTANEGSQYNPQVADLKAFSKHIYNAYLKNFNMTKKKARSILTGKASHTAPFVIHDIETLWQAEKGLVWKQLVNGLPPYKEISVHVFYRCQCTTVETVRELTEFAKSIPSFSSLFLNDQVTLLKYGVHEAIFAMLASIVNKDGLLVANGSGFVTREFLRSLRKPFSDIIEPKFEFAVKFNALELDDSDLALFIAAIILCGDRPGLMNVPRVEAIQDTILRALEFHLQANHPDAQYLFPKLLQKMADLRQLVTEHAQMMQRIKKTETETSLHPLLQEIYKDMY
Description: PPARδ activity screen (GAL4-PPARδ LBD luciferase transactivation in CV-1 cells). Format: cell-based. The method, then: Cell Culture and Transfection: CV-1 cells were grown in DMEM+10% charcoal stripped FCS. Cells were seeded into 384-well plates the day before transfection to give a confluency of 50-80% at transfection. A total of […] containing 0.64 micrograms pCMX-PPARDelta LBD, 0.1 micrograms pCMXβGal, 0.08 micrograms pGLMH2004 reporter and 0.02 micrograms pCMX empty vector was transfected per well using FuGene transfection reagent according to the manufacturer's instructions (Roche).
Plasmids: Human PPARδ was used to PCR amplify the PPARδ LBD. […] Ensuing fusions were verified by sequencing.
Compounds: All compounds were dissolved in DMSO and diluted 1:1000 upon addition to the cells. Compounds were tested in quadruple in concentrations ranging from 0.001 to 100 μM. […] Each compound was tested in at least two separate experiments.
Luciferase assay: Medium including test compound was aspirated and washed with PBS. 50 μl PBS including 1 mM Mg++ and Ca++ were then added to each well. The luciferase assay was performed using the LucLite kit according to the manufacturer's instructions (Packard Instruments). Light emission was quantified by counting on a Perkin Elmer Envision reader. […] Beta-galactosidase assays were performed in the microwell plates using a kit from Promega and read in a Perkin Elmer Envision reader. The beta-galactosidase data were used to normalize (transfection efficiency, cell growth etc.) the luciferase data.
Statistical Methods: The activity of a compound is calculated as fold induction compared to an untreated sample. […] EC50 values were calculated via non-linear regression using GraphPad PRISM (GraphPad Software, San Diego, Calif.).

In the next data set the target is T2, PPARδ (Homo sapiens, UniProt Q03181).
T2 construct: expressed in transfected cells; host or cells: PathHunter NHR cell lines
T2 sequence (Q03181 1-441): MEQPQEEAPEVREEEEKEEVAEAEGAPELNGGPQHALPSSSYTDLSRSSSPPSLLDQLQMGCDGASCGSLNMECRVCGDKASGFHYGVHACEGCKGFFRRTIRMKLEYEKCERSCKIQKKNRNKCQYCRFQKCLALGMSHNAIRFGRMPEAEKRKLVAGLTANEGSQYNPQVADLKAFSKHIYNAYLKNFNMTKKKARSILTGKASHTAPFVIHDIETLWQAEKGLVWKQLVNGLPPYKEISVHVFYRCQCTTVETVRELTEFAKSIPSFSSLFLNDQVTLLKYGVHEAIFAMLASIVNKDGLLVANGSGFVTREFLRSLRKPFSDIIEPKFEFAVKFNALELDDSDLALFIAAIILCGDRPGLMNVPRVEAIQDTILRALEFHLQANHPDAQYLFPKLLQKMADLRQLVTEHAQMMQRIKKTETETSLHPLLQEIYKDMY
The experiment in a line: Nuclear Hormone Receptor (NHR) protein interaction assay (PathHunter), agonist format. Format: cell-based. The method, then: • Cell Handling: PathHunter NHR cell lines were expanded from freezer stocks according to standard procedures. Cells were seeded in a total volume of 20 μL into white walled, 384-well microplates and incubated at 37° C. for the appropriate time prior to testing. Assay media contained charcoal-dextran filtered serum to reduce the level of hormones present. • Agonist Format: For agonist determination, cells were incubated with sample to induce response. Intermediate dilution of sample stocks was performed to generate 5× sample in assay buffer. 5 μL of 5× sample was added to cells and incubated at 37° C. or room temperature for 3-16 hours. Final assay vehicle concentration was 1%. • Antagonist Format: For antagonist determination, cells were pre-incubated with antagonist followed by agonist challenge at the EC80 concentration. Intermediate dilution of sample stocks was performed to generate 5× sample in assay buffer. 5 μL of 5× sample was added to cells and incubated at 37° C. or room temperature for 60 minutes. Vehicle concentration was 1%. […] Microplates were read following signal generation with a PerkinElmer Envision™ instrument for chemiluminescent signal detection. • Data Analysis: Compound activity was analyzed using CBIS data analysis suite (ChemInnovation, CA). For agonist mode assays, percentage activity was calculated using the following formula: % Activity=100%×(mean RLU of test sample−mean RLU of vehicle control)/(mean MAX control ligand−mean RLU of vehicle control).
For antagonist mode assays, percentage inhibition was calculated using the following formula: % Inhibition=100%×(1−(mean RLU of test sample−mean RLU of vehicle control)/(mean RLU of EC80 control−mean RLU of vehicle control)). Note that for select assays, the ligand response produces a decrease in receptor activity (inverse agonist with a constitutively active target). For those assays inverse agonist activity was calculated using the following formula: % Inverse Agonist Activity=100%×((mean RLU of vehicle control−mean RLU of test sample)/(mean RLU of vehicle control−mean RLU of MAX control)).

In another data set the test system is AKO mice. Description: GW treatment in mouse model of ALD (AKO mice), fatty acid analysis by GC/MS and gene expression. Format: in vivo. The source says: ALD is a rare genetic disorder caused by defects in peroxisomal oxidation of very long-chain fatty acids (VLCFAs), resulting in systemic accumulation of VLCFAs, which causes tissue defects mainly in the central nervous system and the adrenal glands. The majority of VLCFAs in the body are endogenously synthesized from long-chain fatty acids (LCFAs). Therefore, one potential way to prevent VLCFA accumulation in ALD is by inducing mitochondrial LCFA oxidation to reduce the availability of LCFAs for VLCFA biosynthesis. In order to test this, a previously described mouse model of ALD was used, in which the X-linked adrenoleukodystrophy gene abcdl was systemically ablated and the knockout (AKO) mice faithfully recapitulated the abnormal VLCFA accumulation phenotype seen in ALD patients.
3-month-old AKO mice were treated with or without GW and their tissues collected for free FA analysis using GC/MS.

Where [4] appears, read: male, mouse, iv, 3 mg/Kg i.v., plasma.
[5] abbreviates: male, mouse, po, 10 mg/Kg p.o., plasma.
Setting [6] is: Table 1, CV-1 cells, GAL4-PPARδ LBD luciferase reporter, compound 24 h, read-out: EC50.
The mark [7] stands for this setting: Table 15, read-out: PPARd, EC50 (nM) (from Salk).
Setting [8] is: PathHunter NHR cell line, agonist format, read-out: NHR protein interaction assay, EC50 (nM) for PPARδ.

In general, kinetic solubility refers to solubility judged after dilution from a stock solution rather than from solid. As a reminder, the solubility (thermodynamic) is solubility found after equilibrating the solid with the medium. The term AUC(0-inf) denotes total exposure, with the tail of the curve extrapolated. Low values mean low exposure, high ones high exposure. One may read the MRT as the average time that molecules of a dose stay in the body. Broadly, the Cmax is the highest concentration seen after dosing. As a reminder, the Tmax is the time from dosing to the highest level. In data set [1] (kinetic from dmso stock), `O=C(O)CCCCCOc1ccccc1CN(C(=O)c1ccc(-c2ccco2)cc1)C1CC1` [compound 12] gave a solubility (kinetic) of 6 µM (≈ 2.69 µg/mL). Also, in data set [1] (thermodynamic from solid), the thermodynamic solubility came to 253 µM (≈ 113 µg/mL). The “% Parent remained at 15 min, MLM” value in data set [2] (15 min) is given as 59%. The “% Parent remained at 60 min, MLM” value in data set [2] (60 min) turned out to be 19%. Besides, the “% Parent remained at 15 min, HLM” value in “% Parent remained in HLM” (15 min) is 92%. Besides, the “% Parent remained at 60 min, HLM” value in the data set “% Parent remained in HLM” (60 min) is 64%. For the same compound, in data set [3] (3 mg/Kg i.v., plasma), the Cl was 194.938 mL/min/kg and the Kel is 3.85 h⁻¹. Moreover, the F in data set [3] (10 mg/Kg p.o. vs 3 mg/Kg i.v.) is roughly 22%. In addition, the Vd in data set [3] (male, plasma, iv, 3 mg/Kg i.v., plasma, read-out: Vss) was 1.58 L/kg. Besides, in data set [3] (male, plasma, iv, 3 mg/Kg i.v., plasma, read-out: Vz), the Vd was 3.03 L/kg. In data set [3] (setting [4]), this compound came in with an AUC(0-inf) of 256 ng·h/mL, a C0 of 1940 ng/mL and an MRT of 7.2 min. In addition, the half-life in data set [3] (male, mouse, iv, 3 mg/Kg i.v., plasma, read-out: Beta T1/2 (converted)) was 10.8 min. In addition, in data set [3] (setting [5]), the AUC(0-inf) is 187 ng·h/mL, the peak level (Cmax) was 129 ng/mL and the time to peak (Tmax) worked out at 30 min. In data set [3] (male, mouse, po, 10 mg/Kg p.o., plasma, read-out: T1/2 (converted)), the half-life was 156 min.

What is called EC50 is the concentration needed to bring the measured effect to its halfway point. `CC(C)N(Cc1ccccc1OCCCCCC(=O)O)C(=O)c1ccc(-c2ccsc2)cc1` [compound 64]: the EC50 at Human PPARδ LBD (setting [6]) came out at 17.2 nM; at Human PPARδ LBD (setting [7]) it was 17.2 nM; at PPARδ (setting [8]), 8.02 nM.

For the compound `CC(C)N(Cc1ccccc1OCCCCCC(=O)O)C(=O)c1ccc(-c2ccco2)cc1` [compound 61], the EC50 at Human PPARδ LBD (setting [6]) was found to be 9 nM; on Human PPARδ LBD (setting [7]), 9 nM; at PPARδ (setting [8]) it was 5.9 nM.

As for `CC(C)N(Cc1ccccc1OCCCCCC(=O)O)C(=O)c1ccc(-c2ccoc2)cc1` [compound 62], the EC50 on Human PPARδ LBD (setting [6]) turned out to be 61 nM; on Human PPARδ LBD (setting [7]), 61 nM; at PPARδ (setting [8]) it was 36.8 nM.

For `CC(C)N(Cc1ccccc1OCCCCCC(=O)O)C(=O)c1ccc(-c2ccccc2)cc1` [compound 57], the EC50 came out at 60 nM at Human PPARδ LBD (EC50 nM, Table 1, CV-1 cells, GAL4-PPARδ LBD luciferase reporter, compound 24 h); 42 nM at Human PPARδ LBD (PPARd, EC50 (nM) (from Salk), Table 15); 25.9 nM on PPARδ.

In the case of `Cc1cc(SCc2sc(-c3ccc(C(F)(F)F)cc3)nc2C)ccc1OCC(=O)O` [GW], the “levels of VLCFAs (C22:0, C23:0, C24:0, C26:0) in AKO brain and liver” value in the data set on AKO mice (8 weeks of GW treatment, 3-month-old AKO mice) was “significantly reduced”. Also, in the data set on AKO mice (8 weeks of GW treatment, most GW-treated animals), the “liver C26:0” value is listed as “cleared”. Also, the “most saturated LCFAs (C12:0 to C22:0) and total FAs” value in the data set with AKO mice (AKO liver and muscle) was “significantly reduced”. Further, the “expression of mitochondrial FA oxidation genes (Cptla and lb, Slc25a20, Acadl)” value in the data set on AKO mice (AKO liver and skeletal muscle) is recorded as “dramatically induced”.
